# Data from article PMC6360136 (Investigational new drugs, 2018).
# Where a name gives a salt, the structure may show the parent alone.
# Assays:
# [1] = test system: colon cancer xenograft; details: colon cancer xenograft mice model, 0.25 mg/kg daily dosing ref 18, 19; cited from earlier work
# [2] = test system: EC46 cells; experiment: Cell viability assay; format: cell-based, human; details: Homo sapiens, Pancreatic cancer cell, 48 h
# [3] = test system: PANC-1 cells; experiment: Cell viability assay; format: cell-based, human; details: Homo sapiens, PANC-1, 48 h
# [4] = test system: EC68 cells; experiment: Cell viability assay; format: cell-based, human; details: Homo sapiens, Pancreatic cancer cell, 48 h
IC50 [3],SMILES,tumor growth [1],IC50 [2],IC50 [4]
–,"CC[C@H](C)[C@H]1C(=O)N2CCC[C@@H]2C(=O)O[C@H](C(C)(C)C)C[C@@H](C)C[C@H](O)C(C)(C)C2=N[C@@H](CCC(=O)N[C@@H](Cc3ccc(OC)cc3)C(=O)N(C)[C@@H](C)C(=O)N1C)CS2 [Apratoxin S8, apratoxin S8]",significantly retarded tumor growth,–,–
13.1 µM,"C#Cc1cccc(Nc2ncnc3cc(OCCOC)c(OCCOC)cc23)c1 [erlotinib hydrochloride, reference compound]",–,2.41 µM,8.96 µM
